Test results reported in patent publication US20080306070A1, “Combination Therapy Comprising Substituted Oxazolidinones for the Prevention and Treatment of Cerebral Circulatory Disorders” (BAYER HEALTHCARE AG, priority 2005, published 2008).

Columns and labels:
[1] = system: thrombus formation in an arteriovenous shunt; test: Arteriovenous shunt model (rat), antithrombotic effect; assay type: in vivo; details: oral administration, read-out: ED50 [mg/kg] p.o.
Protocol: Fasting male rats (strain: HSD CPB:WU) weighing 200-250 g were anesthetized with a Rompun/Ketavet solution (12 mg/kg/50 mg/kg). Thrombus formation was induced in an arteriovenous shunt by a method based on that described by Christopher N. Berry et al., Br. J. Pharmacol. (1994), 113, 1209-1214. For this purpose, the left jugular vein and the right carotid artery were exposed. An extracorporeal shunt was formed between the two vessels using a 10 cm-long polyethylene tube (PE 60). This polyethylene tube was secured in the middle by tying in a further 3 cm-long polyethylene tube (PE 160) which contained a roughened nylon thread forming a loop to produce a thrombogenic surface. The extracorporeal circulation was maintained for 15 minutes. The shunt was then removed and the nylon thread with the thrombus was immediately weighed. The blank weight of the nylon thread had been found before the start of the experiment. The test substances were administered either intravenously through the tail vein or orally by gavage to conscious animals before setting up the extracorporeal circulation.

SMILES	ED50 [1]	melting point
O=C(NC[C@H]1CN(c2ccc(N3CCOCC3=O)cc2)C(=O)O1)c1ccc(Cl)s1 [Example 44, 5-Chloro-N-({(5S)-2-oxo-3-[4-(3-oxo-4-morpholinyl)phenyl]-1,3-oxazolidin-5-yl}methyl)-2-thiophenecarboxamide]	3 mg/kg	–
O=C(NC[C@H]1CN(c2ccc(N3CCCOC3=O)cc2)C(=O)O1)c1ccc(Cl)s1 [Example 255]	–	228 to 230 °C
